Experimental data as given in ChEMBL document CHEMBL4177650, “Synthesis and biological evolution of hydrazones derived from 4-(trifluoromethyl)benzohydrazide” (Bioorg Med Chem Lett, 2017).
In brackets after ≈: the same amount, converted by molar mass. Activity calls are given as the source filed them. The calls are words filed in the database; no cut-off is given here.

Columns and labels:
[1] = test system: Mycobacterium tuberculosis; experiment: Antimycobacterial activity against Mycobacterium tuberculosis H37Rv 331/88 after 14 days by micromethod; assay type: functional; conditions: H37Rv 331/88, 336 h
[2] = test system: Mycobacterium tuberculosis; experiment: Antimycobacterial activity against Mycobacterium tuberculosis H37Rv 331/88 after 21 days by micromethod; assay type: functional; conditions: H37Rv 331/88, 504 h
Mycobacterium avium [3] = experiment: Antimycobacterial activity against Mycobacterium avium 330/88 after 14 days by micromethod; assay type: functional; conditions: 330/88, 336 h
Mycobacterium avium [4] = experiment: Antimycobacterial activity against Mycobacterium avium 330/88 after 21 days by micromethod; assay type: functional; conditions: 330/88, 504 h
Mycobacterium kansasii [5] = experiment: Antimycobacterial activity against Mycobacterium kansasii 6509/80 after 7 days by micromethod; assay type: functional; conditions: 6509/80, 168 h
Mycobacterium kansasii [6] = experiment: Antimycobacterial activity against Mycobacterium kansasii 6509/80 after 14 days by micromethod; assay type: functional; conditions: 6509/80, 336 h
Mycobacterium kansasii [7] = experiment: Antimycobacterial activity against Mycobacterium kansasii 6509/80 after 21 days by micromethod; assay type: functional; conditions: 6509/80, 504 h
Mycobacterium kansasii [8] = experiment: Antimycobacterial activity against Mycobacterium kansasii 6509/96 after 7 days by micromethod; assay type: functional; conditions: 6509/96, 168 h
Mycobacterium kansasii [9] = experiment: Antimycobacterial activity against Mycobacterium kansasii 6509/96 after 14 days by micromethod; assay type: functional; conditions: 6509/96, 336 h
Mycobacterium kansasii [10] = experiment: Antimycobacterial activity against Mycobacterium kansasii 6509/96 after 21 days by micromethod; assay type: functional; conditions: 6509/96, 504 h
Staphylococcus aureus [11] = experiment: Antibacterial activity against gram-positive Staphylococcus aureus CCM 4516/08 after 24 hrs by microdilution broth method; assay type: functional; conditions: CCM 4516/08, 24 h
Staphylococcus aureus [12] = experiment: Antibacterial activity against gram-positive Staphylococcus aureus CCM 4516/08 after 48 hrs by microdilution broth method; assay type: functional; conditions: CCM 4516/08, 48 h
Staphylococcus aureus [13] = experiment: Antibacterial activity against gram-positive methicillin-resistant Staphylococcus aureus H 5996/08 after 24 hrs by microdilution broth method; assay type: functional; conditions: H 5996/08, 24 h
Staphylococcus aureus [14] = experiment: Antibacterial activity against gram-positive methicillin-resistant Staphylococcus aureus H 5996/08 after 48 hrs by microdilution broth method; assay type: functional; conditions: H 5996/08, 48 h
[15] = test system: Staphylococcus epidermidis; experiment: Antibacterial activity against gram-positive Staphylococcus epidermidis H 6966/08 after 24 hrs by microdilution broth method; assay type: functional; conditions: H 6966/08, 24 h
[16] = test system: Staphylococcus epidermidis; experiment: Antibacterial activity against gram-positive Staphylococcus epidermidis H 6966/08 after 48 hrs by microdilution broth method; assay type: functional; conditions: H 6966/08, 48 h
Enterococcus faecalis [17] = experiment: Antibacterial activity against gram-positive Enterococcus faecalis J 14365/08 after 24 hrs by microdilution broth method; assay type: functional; conditions: J 14365/08, 24 h
Enterococcus faecalis [18] = experiment: Antibacterial activity against gram-positive Enterococcus faecalis J 14365/08 after 48 hrs by microdilution broth method; assay type: functional; conditions: J 14365/08, 48 h
Escherichia coli [19] = experiment: Antibacterial activity against gram-negative Escherichia coli CCM 4517 after 24 hrs by microdilution broth method; assay type: functional; conditions: CCM 4517, 24 h
Escherichia coli [20] = experiment: Antibacterial activity against gram-negative Escherichia coli CCM 4517 after 48 hrs by microdilution broth method; assay type: functional; conditions: CCM 4517, 48 h
Klebsiella pneumoniae [21] = experiment: Antibacterial activity against gram-negative Klebsiella pneumoniae D 11750/08 after 24 to 48 hrs by microdilution broth method; assay type: functional, organism-based
Pseudomonas aeruginosa = experiment: Antibacterial activity against gram-negative Pseudomonas aeruginosa CCM 1961 after 48 hrs by microdilution broth method; assay type: functional, organism-based
Klebsiella pneumoniae [22] = experiment: Antibacterial activity against extended spectrum beta-lactamase-positive Klebsiella pneumoniae J 14368/08 after 24 to 48 hrs by microdilution broth method; assay type: functional, organism-based
Candida tropicalis [23] = experiment: Antifungal activity against Candida tropicalis 156 after 24 hrs by microdilution broth method; assay type: functional; conditions: Candida tropicalis, 156, 24 h
Candida tropicalis [24] = experiment: Antifungal activity against Candida tropicalis 156 after 48 hrs by microdilution broth method; assay type: functional; conditions: Candida tropicalis, 156, 48 h
Pichia kudriavzevii [25] = experiment: Antifungal activity against Candida krusei E28 after 24 hrs by microdilution broth method; assay type: functional; conditions: E28, 24 h
Pichia kudriavzevii [26] = experiment: Antifungal activity against Candida krusei E28 after 48 hrs by microdilution broth method; assay type: functional; conditions: E28, 48 h
Nakaseomyces glabratus [27] = experiment: Antifungal activity against Candida glabrata 20/I after 24 hrs by microdilution broth method; assay type: functional
Nakaseomyces glabratus [28] = experiment: Antifungal activity against Candida glabrata 20/I after 48 hrs by microdilution broth method; assay type: functional
[29] = test system: Trichophyton mentagrophytes; experiment: Antifungal activity against Trichophyton mentagrophytes 445 after 72 hrs by microdilution broth method; assay type: functional; conditions: Trichophyton mentagrophytes, 445, 72 h
[30] = test system: Trichophyton mentagrophytes; experiment: Antifungal activity against Trichophyton mentagrophytes 445 after 120 hrs by microdilution broth method; assay type: functional; conditions: Trichophyton mentagrophytes, 445, 120 h
Candida albicans = experiment: Antifungal activity against Candida albicans ATCC 44859 after 24 to 48 hrs by microdilution broth method; assay type: functional, organism-based
Trichosporon asahii = experiment: Antifungal activity against Trichosporon asahii 1188 after 24 to 48 hrs by microdilution broth method; assay type: functional, organism-based
Aspergillus fumigatus = experiment: Antifungal activity against Aspergillus fumigatus 231 after 24 to 48 hrs by microdilution broth method; assay type: functional, organism-based
Lichtheimia corymbifera = experiment: Antifungal activity against Absidia corymbifera 272 after 24 to 48 hrs by microdilution broth method; assay type: functional, organism-based
HepG2 [31] = experiment: Cytostatic activity against human HepG2 cells incubated overnight followed by compound wash measured after 72 hrs by MTT assay; assay type: ADME, cell-based; conditions: HepG2, 72 h
MONO-MAC-6 [32] = experiment: Cytostatic activity against human MONO-MAC-6 cells incubated overnight followed by compound wash measured after 72 hrs by MTT assay; assay type: ADME, cell-based; conditions: MONO-MAC-6, 72 h
HepG2 [33] = experiment: Cytotoxicity against human HepG2 cells after overnight incubation by MTT assay; assay type: cell-based
MONO-MAC-6 [34] = experiment: Cytotoxicity against human MONO-MAC-6 cells after overnight incubation by MTT assay; assay type: functional, cell-based
[35] = Cytotoxicity against mouse bone marrow macrophages after overnight incubation by MTT assay; conditions: BMDM
[36] = Selectivity index, ratio of IC50 for human HepG2 cells to MIC for Mycobacterium tuberculosis H37Rv 331/88; assay type: toxicity; conditions: read-out: Selectivity Index
[37] = Selectivity index, ratio of IC50 for human HepG2 cells to MIC for Mycobacterium avium 330/88; assay type: toxicity; conditions: read-out: Selectivity Index
[38] = Selectivity index, ratio of IC50 for human HepG2 cells to MIC for Mycobacterium kansasii 6509/80; assay type: toxicity; conditions: read-out: Selectivity Index
[39] = Selectivity index, ratio of IC50 for human HepG2 cells to MIC for Mycobacterium kansasii 6509/96; assay type: toxicity; conditions: read-out: Selectivity Index
[40] = Selectivity index, ratio of IC50 for human HepG2 cells to MIC for gram-positive Staphylococcus aureus CCM 4516/08; assay type: toxicity; conditions: read-out: Selectivity Index
[41] = Selectivity index, ratio of IC50 for human HepG2 cells to MIC for Candida glabrata 20/I; assay type: toxicity; conditions: read-out: Selectivity Index
[42] = Selectivity index, ratio of IC50 for human HepG2 cells to MIC for Trichophyton mentagrophytes 445; assay type: toxicity; conditions: read-out: Selectivity Index

Structure (SMILES): O=C(N/N=C/c1cc(Cl)ccc1O)c1ccc(C(F)(F)F)cc1
- MIC [1]: 62.5 µM (≈ 21.4 µg/mL)
- MIC [2]: 62.5 µM (≈ 21.4 µg/mL)
- MIC (Mycobacterium avium [3]): 62.5 µM (≈ 21.4 µg/mL)
- MIC (Mycobacterium avium [4]): 125 µM (≈ 42.8 µg/mL)
- MIC (Mycobacterium kansasii [5]): 62.5 µM (≈ 21.4 µg/mL)
- MIC (Mycobacterium kansasii [6]): 125 µM (≈ 42.8 µg/mL)
- MIC (Mycobacterium kansasii [7]): 125 µM (≈ 42.8 µg/mL)
- MIC (Mycobacterium kansasii [8]): 62.5 µM (≈ 21.4 µg/mL)
- MIC (Mycobacterium kansasii [9]): 125 µM (≈ 42.8 µg/mL)
- MIC (Mycobacterium kansasii [10]): 125 µM (≈ 42.8 µg/mL)
- MIC (Staphylococcus aureus [11]): 1.98 µM (≈ 0.679 µg/mL)
- MIC (Staphylococcus aureus [12]): 1.98 µM (≈ 0.679 µg/mL)
- MIC (Staphylococcus aureus [13]): 1.98 µM (≈ 0.679 µg/mL)
- MIC (Staphylococcus aureus [14]): 1.98 µM (≈ 0.679 µg/mL)
- MIC [15]: 3.9 µM (≈ 1.34 µg/mL)
- MIC [16]: 3.9 µM (≈ 1.34 µg/mL)
- MIC (Enterococcus faecalis [17]): 1.98 µM (≈ 0.679 µg/mL)
- MIC (Enterococcus faecalis [18]): 3.9 µM (≈ 1.34 µg/mL)
- MIC (Escherichia coli [19]): 250 µM (≈ 85.7 µg/mL)
- MIC (Escherichia coli [20]): 250 µM (≈ 85.7 µg/mL)
- Activity (Klebsiella pneumoniae [21]): inactive
- Activity (Pseudomonas aeruginosa): inactive
- Activity (Klebsiella pneumoniae [22]): inactive
- MIC (Candida tropicalis [23]): > 125 µM
- MIC (Candida tropicalis [24]): > 125 µM
- MIC (Pichia kudriavzevii [25]): > 125 µM
- MIC (Pichia kudriavzevii [26]): > 125 µM
- MIC (Nakaseomyces glabratus [27]): ≤ 0.49 µM
- MIC (Nakaseomyces glabratus [28]): 0.98 µM (≈ 0.336 µg/mL)
- MIC [29]: 1.98 µM (≈ 0.679 µg/mL)
- MIC [30]: 3.9 µM (≈ 1.34 µg/mL)
- Activity (Candida albicans): inactive
- Activity (Trichosporon asahii): inactive
- Activity (Aspergillus fumigatus): inactive
- Activity (Lichtheimia corymbifera): inactive
- IC50 (HepG2 [31]): 13.6 µM
- IC50 (MONO-MAC-6 [32]): 10.3 µM
- IC50 (HepG2 [33]): > 100 µM
- IC50 (MONO-MAC-6 [34]): 5.8 µM
- IC50 [35]: > 100 µM
- selectivity ratio [36]: > 1.6
- selectivity ratio [37]: > 1.6
- selectivity ratio [38]: > 1.6
- selectivity ratio [39]: > 1.6
- selectivity ratio [40]: > 50.5
- selectivity ratio [41]: > 25.6
- selectivity ratio [42]: > 25.6

Structure (SMILES): O=C(N/N=C/c1ccccc1O)c1ccc(C(F)(F)F)cc1
- MIC [1]: 125 µM (≈ 38.5 µg/mL)
- MIC [2]: 250 µM (≈ 77.1 µg/mL)
- MIC (Mycobacterium avium [3]): 125 µM (≈ 38.5 µg/mL)
- MIC (Mycobacterium avium [4]): 250 µM (≈ 77.1 µg/mL)
- MIC (Mycobacterium kansasii [5]): 250 µM (≈ 77.1 µg/mL)
- MIC (Mycobacterium kansasii [6]): 250 µM (≈ 77.1 µg/mL)
- MIC (Mycobacterium kansasii [7]): 250 µM (≈ 77.1 µg/mL)
- MIC (Mycobacterium kansasii [8]): 250 µM (≈ 77.1 µg/mL)
- MIC (Mycobacterium kansasii [9]): 250 µM (≈ 77.1 µg/mL)
- MIC (Mycobacterium kansasii [10]): 250 µM (≈ 77.1 µg/mL)
- MIC (Staphylococcus aureus [11]): 500 µM (≈ 154 µg/mL)
- MIC (Staphylococcus aureus [12]): > 500 µM
- MIC (Staphylococcus aureus [13]): 500 µM (≈ 154 µg/mL)
- MIC (Staphylococcus aureus [14]): > 500 µM
- MIC [15]: 250 µM (≈ 77.1 µg/mL)
- MIC [16]: 500 µM (≈ 154 µg/mL)
- MIC (Enterococcus faecalis [17]): 250 µM (≈ 77.1 µg/mL)
- MIC (Enterococcus faecalis [18]): 250 µM (≈ 77.1 µg/mL)
- MIC (Escherichia coli [19]): 500 µM (≈ 154 µg/mL)
- MIC (Escherichia coli [20]): 500 µM (≈ 154 µg/mL)
- Activity (Klebsiella pneumoniae [21]): inactive
- Activity (Pseudomonas aeruginosa): inactive
- Activity (Klebsiella pneumoniae [22]): inactive
- MIC (Candida tropicalis [23]): > 125 µM
- MIC (Candida tropicalis [24]): > 125 µM
- MIC (Pichia kudriavzevii [25]): > 125 µM
- MIC (Pichia kudriavzevii [26]): > 125 µM
- MIC (Nakaseomyces glabratus [27]): 3.9 µM (≈ 1.2 µg/mL)
- MIC (Nakaseomyces glabratus [28]): 15.6 µM (≈ 4.82 µg/mL)
- MIC [29]: 7.81 µM (≈ 2.41 µg/mL)
- MIC [30]: 15.6 µM (≈ 4.82 µg/mL)
- Activity (Candida albicans): inactive
- Activity (Trichosporon asahii): inactive
- Activity (Aspergillus fumigatus): inactive
- Activity (Lichtheimia corymbifera): inactive
- IC50 (HepG2 [31]): 6.2 µM
- IC50 (MONO-MAC-6 [32]): 1.7 µM
- IC50 (HepG2 [33]): > 100 µM
- IC50 (MONO-MAC-6 [34]): 2.28 µM
- IC50 [35]: > 100 µM
- selectivity ratio [41]: > 6.4
- selectivity ratio [42]: > 6.4
